Reference: patent publication US11578013B2, “Nitrification inhibitors” (Lincoln University, priority 2020, dated 2023)

Key:
[1] = system: nitrification in the soil; test: Laboratory soil incubation, Templeton sandy loam with synthetic cow urine, nitrate-N; settings: day 30
Method: A Templeton sandy loam was used in this experiment. 500 g of soil (dry weight basis) was packed into a pottle. 50 mL of synthetic cow urine with an N concentration of 7 g N/L (comprising about 87% urea-N and 13% glycine-N) was applied to the soil (equivalent to 700 kg N/ha on weight basis, assuming bulk density of 1 g/cm^3 in the top 10 cm of soil). The 700 kg N/ha application was used to simulate the urine-N application rate under a typical dairy cow urine patch in a grazed pasture.
Control treatments also added to soil were: • urine alone (50 mL); • DMSO (equivalent to 0.9 mL/500 g soil)+urine (50 mL) to determine the effect of DMSO on nitrification rate; • water alone (50 mL) (simulating areas of the soil where no urine was deposited).
Pottles were covered with lids with breathing holes to allow for gas exchange during incubation. Pottles were incubated at 12° C. Soil moisture content was maintained at field capacity by adjusting on weight basis twice a week.
Soil samples were collected and were then thoroughly mixed and subsamples were extracted in a potassium chloride solution and analysed for mineral-N. Soil moisture content was also determined. Samples were taken at 30 days after the start of incubation. […]

nitrification = test: Table 1 summary: compounds found to work or not work as nitrification inhibitors, Inhib(%); design: concentration or dose not given beside the values; settings: test and rate not given
Method: The phenotypic screening involved assessing the nitrification inhibition potency of the selected 5000 compounds against a key ammonia oxidizing bacterium responsible for ammonia oxidation in the soil, Nitrosomonas europaea, in 96-well microtiter plates. N. europaea cells were grown in the presence of an ammonium source, and the potential of putative nitrification inhibitors to inhibit the production of nitrite (NO2) was measured relative to untreated cells.
A summary of selected compounds initially found to either work or not work as nitrification inhibitors is detailed in Table 1 below.

[2] = system: nitrification in the soil; test: Soil column study with static gas chambers (Study 2-14): nitrate-N and N2O emissions; settings: 10 kg/ha sprayed to soil surface, soil column
Method: To determine the effect of treating the soil with 4-Ethynylanisole on nitrification rate and nitrous oxide emissions, soil column studies with static gas chambers were conducted. The experiment was conducted in cylindrical PVC containers (Diameter=186 mm, Height=240 mm). The containers were filled with soil to half of the container's height (120 mm), leaving 120 mm headspace. The soil was Templeton sandy loam collected from Lincoln University Research Dairy Farm. It was screened using a 5 mm sieve and air-dried to the required moisture level and packed to bulk density of 1 g/cm3.
The experiment was conducted under controlled conditions. The temperature of the soil columns were maintained at around 12° C. by using a water bath to control the temperature.
The treatments included Control (Water), Control (animal urine), Control (urine+DMSO), Control (urine+DCD at 10 kg/ha) and urine+4-Ethynylanisole (10 kg/ha) in DMSO. Synthetic cow urine was applied at 700 kg N/ha (comprising about 87% urea-N and 13% glycine-N), and 4-Ethynylanisole was applied at 10 kg/ha. There were two sets of cores for each treatment, one set were fitted with static gas chambers with removable lids for nitrous oxide sampling, and the other set used for soil sampling. The urine was sprayed to the surface of the soil simulating urine deposition by a grazing animal; DMSO, or DCD or 4-Ethynylanisole mixed with DMSO was also sprayed onto the urine treated soils to simulate the treatment of urine patches. Nitrous oxide gas measurements followed these treatments—as is detailed further below.
For the soil columns that were set up for taking soil samples for analysis of mineral nitrogen, the different treatments were mixed with the soil for soil sampling. Soil moisture was adjusted to 100% field capacity (FC) and maintained between 80 and 100% FC over the duration of the experiment.
Nitrous oxide (N2O) gas sampling was conducted twice a week using the standard procedure (Di et al., 2007). Vials were evacuated prior to sampling. Three gas samples were taken with 20 minute intervals between each sampling. Sampling frequency was reduced to once a week when N2O fluxes decreased in intensity.
Soil sampling was conducted on Day 1, 7, 14, 30, and 60. The soil samples were analysed for mineral nitrogen.

[3] = relative to table salt; cited from earlier work
rats = settings: female rats; cited from earlier work

Structure (SMILES) | nitrate-N concentration in the soil compared with urine alone or urine+DMSO ([1]; 1 kg/ha) | nitrate-N concentration in the soil compared with urine alone or urine+DMSO ([1]; 2 kg/ha) | melting point | Inhib(%) (nitrification) | N2O—N emissions lower than urine alone control [2] | toxicity rating [3] | oral LD50 (rats)
C#Cc1ccc(OC)nn1 [3-Ethynyl-6-methoxypyridazine] | lower nitrate-N concentrations | lower nitrate-N concentrations | 51.7 to 53.1 °C |  |  |  | 
C#Cc1cnc(OC)nc1 [5-Ethynyl-2-methoxypyrimidine] | lower nitrate-N concentrations | lower nitrate-N concentrations | 82.3 to 83.1 °C | 100% |  |  | 
N#CNC(=N)N [DCD, dicyandiamide] |  |  |  |  | 43.4% | 10 times less toxic than table salt | greater than 30,000 mg kg^−1 body weight
